Columns and labels:
[1] = Plasma concentration in female rat at 12.5 mg/kg, po administered once daily for 8 days and measured on day 8; type: ADME, organism-based
[2] = target: T1, Alpha-1A adrenergic receptor (Homo sapiens) (UniProt P35348); experiment: Antagonist activity at human alpha1A adrenergic receptor expressed in CHO-K1 cells at 10 uM by fluorimetric method relative to control; type: cell-based; parameters: scale not given: the % may be the effect or the level left
T1 sequence (whole entry): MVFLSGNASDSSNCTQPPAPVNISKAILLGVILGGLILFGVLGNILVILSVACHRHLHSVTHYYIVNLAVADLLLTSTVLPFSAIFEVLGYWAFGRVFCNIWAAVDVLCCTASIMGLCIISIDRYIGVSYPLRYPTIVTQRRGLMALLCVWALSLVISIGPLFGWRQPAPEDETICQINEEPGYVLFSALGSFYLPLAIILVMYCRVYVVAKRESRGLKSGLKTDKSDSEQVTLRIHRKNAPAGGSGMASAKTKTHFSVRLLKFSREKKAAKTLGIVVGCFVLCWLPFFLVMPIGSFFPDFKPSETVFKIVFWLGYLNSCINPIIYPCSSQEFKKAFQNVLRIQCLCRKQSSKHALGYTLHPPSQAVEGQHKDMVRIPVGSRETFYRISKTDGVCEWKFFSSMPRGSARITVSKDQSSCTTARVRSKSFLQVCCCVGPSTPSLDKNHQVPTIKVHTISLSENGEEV

[3] = Lipophilicity, logD of the compound at pH 7.5 by reversed-phase HPLC; type: physicochemical; settings: buffer
[4] = target: 5-hydroxytryptamine receptor 6 (Homo sapiens) (UniProt P50406); experiment: Agonist activity at human 5-HT6 receptor expressed in CHO-K1 cells at 10 uM after 30 mins by HTRF assay relative to control; type: cell-based
[5] = target: T2, 5-hydroxytryptamine receptor 1A (Homo sapiens) (UniProt P08908); experiment: Agonist activity at human 5-HT1A receptor expressed in mouse BA/F3 cells at 10 uM by fluorimetric method relative to control; type: cell-based
T2 sequence (whole entry): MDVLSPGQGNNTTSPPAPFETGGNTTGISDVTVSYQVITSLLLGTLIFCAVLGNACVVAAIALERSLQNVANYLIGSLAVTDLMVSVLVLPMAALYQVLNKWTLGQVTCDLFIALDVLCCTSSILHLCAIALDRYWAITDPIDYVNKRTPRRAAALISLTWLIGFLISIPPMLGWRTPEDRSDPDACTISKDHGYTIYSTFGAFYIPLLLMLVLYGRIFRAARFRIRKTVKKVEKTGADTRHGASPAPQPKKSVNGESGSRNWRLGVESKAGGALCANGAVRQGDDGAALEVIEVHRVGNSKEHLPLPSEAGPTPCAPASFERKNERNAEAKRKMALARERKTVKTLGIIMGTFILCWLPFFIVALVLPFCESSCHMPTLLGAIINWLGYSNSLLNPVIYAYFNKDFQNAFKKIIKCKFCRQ

[6] = target: Histamine H3 receptor (Homo sapiens) (UniProt Q9Y5N1); experiment: Antagonist activity at human histamine H3 receptor expressed in CHO-K1 cells at 10 uM after 10 mins by HTRF assay relative to control; type: cell-based; parameters: scale not given: the % may be the effect or the level left
[7] = Half life in Wistar rat at 0.5 mg/kg, iv after 2 to 72 hrs by LC-MS/MS analysis; type: ADME, organism-based; settings: in vivo
[8] = target: T3, Adenosine receptor A3 (Homo sapiens) (UniProt P0DMS8); experiment: Agonist activity at human A3 receptor expressed in CHO-K1 cells at 10 uM after 20 mins by HTRF assay relative to control; type: cell-based
T3 sequence (whole entry): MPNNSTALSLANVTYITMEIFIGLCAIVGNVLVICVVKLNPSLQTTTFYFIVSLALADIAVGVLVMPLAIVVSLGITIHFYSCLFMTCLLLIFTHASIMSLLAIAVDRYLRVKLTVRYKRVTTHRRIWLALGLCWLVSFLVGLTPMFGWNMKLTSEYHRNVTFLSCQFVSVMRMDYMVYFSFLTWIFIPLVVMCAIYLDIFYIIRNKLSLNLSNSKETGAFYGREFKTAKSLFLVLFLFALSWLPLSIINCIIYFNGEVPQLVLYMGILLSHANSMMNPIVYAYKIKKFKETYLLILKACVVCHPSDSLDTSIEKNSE

[9] = target: Histamine H2 receptor (Homo sapiens) (UniProt P25021); experiment: Antagonist activity at human histamine H2 receptor expressed in CHO-K1 cells at 10 uM after 30 mins by HTRF assay relative to control; type: cell-based; parameters: scale not given: the % may be the effect or the level left
[10] = target: 5-hydroxytryptamine receptor 6 (Homo sapiens) (UniProt P50406); experiment: Antagonist activity at human 5-HT6 receptor expressed in CHO-K1 cells at 10 uM after 30 mins by HTRF assay relative to control; type: cell-based; parameters: scale not given: the % may be the effect or the level left
[11] = target: 5-hydroxytryptamine receptor 2B (Homo sapiens) (UniProt P41595); experiment: Agonist activity at human 5-HT2B receptor expressed in CHO-K1 cells at 10 uM after 30 mins by HTRF assay relative to control; type: cell-based
[12] = Clearance in human liver microsomes at 1 uM measured after 2 to 60 mins in presence of glucose-6-phosphate by LC-MS/MS analysis; type: ADME, Microsome
[13] = target: Beta-1 adrenergic receptor (Homo sapiens) (UniProt P08588); experiment: Agonist activity at human beta1 adrenergic receptor expressed in HEK293 cells at 10 uM after 30 mins HTRF assay relative to control; type: cell-based
[14] = target: T4, Alpha-2A adrenergic receptor (Homo sapiens) (UniProt P08913); experiment: Agonist activity at human alpha2A adrenergic receptor expressed in Chem-1 cells at 10 uM by fluorimetric method relative to control; type: cell-based
T4 sequence (whole entry): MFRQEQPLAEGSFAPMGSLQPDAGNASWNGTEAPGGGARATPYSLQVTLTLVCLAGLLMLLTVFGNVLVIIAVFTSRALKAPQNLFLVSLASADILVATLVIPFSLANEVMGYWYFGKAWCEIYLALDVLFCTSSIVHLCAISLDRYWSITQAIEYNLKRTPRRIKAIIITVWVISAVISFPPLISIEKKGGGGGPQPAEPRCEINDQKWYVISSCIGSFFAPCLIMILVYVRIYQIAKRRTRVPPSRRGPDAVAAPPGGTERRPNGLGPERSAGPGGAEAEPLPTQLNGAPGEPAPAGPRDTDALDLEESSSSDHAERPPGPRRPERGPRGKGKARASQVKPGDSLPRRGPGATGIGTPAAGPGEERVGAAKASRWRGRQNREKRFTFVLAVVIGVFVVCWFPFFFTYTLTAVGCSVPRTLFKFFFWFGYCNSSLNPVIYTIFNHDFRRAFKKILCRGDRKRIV

[15] = target: P2Y purinoceptor 2 (Homo sapiens) (UniProt P41231); experiment: Antagonist activity at human P2Y2 receptor expressed in human 1321N1 cells at 10 uM by fluorimetric method relative to control; type: cell-based; parameters: scale not given: the % may be the effect or the level left
[16] = target: Beta-1 adrenergic receptor (Homo sapiens) (UniProt P08588); experiment: Antagonist activity at human beta1 adrenergic receptor expressed in HEK293 cells at 10 uM after 30 mins HTRF assay relative to control; type: cell-based; parameters: scale not given: the % may be the effect or the level left

Sequence of Beta-1 adrenergic receptor (Homo sapiens) (P08588 whole entry, looked up): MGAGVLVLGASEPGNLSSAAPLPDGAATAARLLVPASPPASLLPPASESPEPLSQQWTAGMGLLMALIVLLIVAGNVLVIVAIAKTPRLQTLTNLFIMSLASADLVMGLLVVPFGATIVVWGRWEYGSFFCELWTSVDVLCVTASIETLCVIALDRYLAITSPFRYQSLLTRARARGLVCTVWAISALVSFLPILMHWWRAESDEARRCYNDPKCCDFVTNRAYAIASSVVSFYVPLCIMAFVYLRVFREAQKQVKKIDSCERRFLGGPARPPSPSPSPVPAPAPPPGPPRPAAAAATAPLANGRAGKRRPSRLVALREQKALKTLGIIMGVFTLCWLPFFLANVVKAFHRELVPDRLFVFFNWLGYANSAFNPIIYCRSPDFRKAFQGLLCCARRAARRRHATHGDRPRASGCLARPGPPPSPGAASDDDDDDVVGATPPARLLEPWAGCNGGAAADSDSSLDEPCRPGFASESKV
Sequence of 5-hydroxytryptamine receptor 6 (Homo sapiens) (P50406 whole entry): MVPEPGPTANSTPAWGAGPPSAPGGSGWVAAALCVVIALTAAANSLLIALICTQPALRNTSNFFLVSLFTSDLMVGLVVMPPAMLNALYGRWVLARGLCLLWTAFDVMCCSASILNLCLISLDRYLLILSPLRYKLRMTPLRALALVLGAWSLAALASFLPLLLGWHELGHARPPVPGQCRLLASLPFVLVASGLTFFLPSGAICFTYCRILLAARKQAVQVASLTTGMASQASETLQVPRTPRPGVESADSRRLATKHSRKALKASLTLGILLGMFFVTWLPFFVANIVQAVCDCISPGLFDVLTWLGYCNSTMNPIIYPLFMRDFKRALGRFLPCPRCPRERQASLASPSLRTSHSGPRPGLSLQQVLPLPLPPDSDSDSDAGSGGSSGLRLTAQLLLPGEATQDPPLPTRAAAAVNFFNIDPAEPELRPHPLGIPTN
Sequence of Histamine H2 receptor (Homo sapiens) (P25021 whole entry): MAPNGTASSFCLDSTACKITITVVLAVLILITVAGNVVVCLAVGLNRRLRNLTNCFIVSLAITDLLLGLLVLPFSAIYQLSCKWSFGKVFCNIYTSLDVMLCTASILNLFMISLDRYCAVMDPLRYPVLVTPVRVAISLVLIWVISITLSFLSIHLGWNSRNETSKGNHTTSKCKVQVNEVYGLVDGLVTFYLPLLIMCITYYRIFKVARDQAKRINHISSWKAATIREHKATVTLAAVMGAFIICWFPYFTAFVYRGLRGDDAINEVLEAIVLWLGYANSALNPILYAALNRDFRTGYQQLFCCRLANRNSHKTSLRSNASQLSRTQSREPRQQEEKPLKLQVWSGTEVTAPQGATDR
Sequence of P2Y purinoceptor 2 (Homo sapiens) (P41231 whole entry): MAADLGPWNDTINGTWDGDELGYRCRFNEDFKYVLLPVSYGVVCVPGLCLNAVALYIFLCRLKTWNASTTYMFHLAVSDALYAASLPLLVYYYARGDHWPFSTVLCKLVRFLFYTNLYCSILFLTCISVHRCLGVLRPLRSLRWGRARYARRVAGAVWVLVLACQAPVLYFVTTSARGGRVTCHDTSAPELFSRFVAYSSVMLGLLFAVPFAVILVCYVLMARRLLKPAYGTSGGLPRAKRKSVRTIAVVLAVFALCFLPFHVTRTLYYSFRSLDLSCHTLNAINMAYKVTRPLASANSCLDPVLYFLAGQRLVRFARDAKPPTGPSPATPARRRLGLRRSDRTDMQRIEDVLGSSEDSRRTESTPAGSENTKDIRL
Sequence of Histamine H3 receptor (Homo sapiens) (Q9Y5N1 whole entry): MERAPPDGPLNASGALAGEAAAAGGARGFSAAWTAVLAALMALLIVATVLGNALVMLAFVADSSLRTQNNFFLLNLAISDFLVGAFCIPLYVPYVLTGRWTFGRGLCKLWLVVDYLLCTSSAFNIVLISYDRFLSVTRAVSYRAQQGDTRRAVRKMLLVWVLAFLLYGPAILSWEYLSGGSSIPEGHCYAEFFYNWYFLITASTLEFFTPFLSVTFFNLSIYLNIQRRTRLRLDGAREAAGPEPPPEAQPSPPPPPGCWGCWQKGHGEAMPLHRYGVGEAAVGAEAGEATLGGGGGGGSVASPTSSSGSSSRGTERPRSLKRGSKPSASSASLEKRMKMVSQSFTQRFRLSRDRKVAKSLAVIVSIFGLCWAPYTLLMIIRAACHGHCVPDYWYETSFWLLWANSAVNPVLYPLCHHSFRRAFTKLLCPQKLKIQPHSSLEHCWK
Sequence of 5-hydroxytryptamine receptor 2B (Homo sapiens) (P41595 whole entry): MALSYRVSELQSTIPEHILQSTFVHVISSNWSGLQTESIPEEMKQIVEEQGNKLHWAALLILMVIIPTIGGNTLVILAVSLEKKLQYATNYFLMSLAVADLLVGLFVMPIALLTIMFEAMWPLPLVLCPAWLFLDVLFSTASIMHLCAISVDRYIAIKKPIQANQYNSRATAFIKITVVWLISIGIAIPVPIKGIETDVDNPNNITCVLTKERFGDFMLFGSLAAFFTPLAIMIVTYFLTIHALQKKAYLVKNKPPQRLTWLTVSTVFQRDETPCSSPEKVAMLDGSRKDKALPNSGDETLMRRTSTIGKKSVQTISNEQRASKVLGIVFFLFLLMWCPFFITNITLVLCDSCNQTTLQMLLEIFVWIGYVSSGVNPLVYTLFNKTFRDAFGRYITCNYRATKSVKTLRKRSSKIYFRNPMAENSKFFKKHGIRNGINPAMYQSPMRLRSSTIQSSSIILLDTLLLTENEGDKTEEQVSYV

concentration at 192 h [1] [µM]	Activity [2] [%]	chromatographic logD [3]	Activity [4] [%]	Activity [5] [%]	Activity [6] [%]	half-life [7] [h]	Activity [8] [%]	Activity [9] [%]	Activity [10] [%]	Activity [11] [%]	CLhep predicted at 1 µM [12] [mL/min/kg]	Activity [13] [%]	Activity [14] [%]	Activity [15] [%]	Activity [16] [%]	Compound
34	< 70	2.8	< 70	< 70	< 70	31	< 70	< 70	< 70	< 70	1.67	< 70	< 70	< 70	< 70	O=C(Nc1cnc(Oc2ccc(F)cc2)nc1)N1CCc2ncccc2[C@@H]1c1ccc(F)cc1 [BAY-899]
7	< 70	4.7	< 70	< 70	< 70	11	< 70	< 70	< 70	< 70	3.33	< 70	< 70	< 70	< 70	O=C(Nc1ccc(Oc2ccc(F)cc2)cc1)N1CCc2ncccc2[C@@H]1c1ccc(Cl)cc1

— ChEMBL document CHEMBL4321836, “Discovery of BAY-298 and BAY-899: Tetrahydro-1,6-naphthyridine-Based, Potent, and Selective Antagonists of the Luteinizing Hormone Receptor Which Reduce Sex Hormone Levels in Vivo” (J Med Chem, 2019)
